For this test, the system named is p53, Mdm2, p21, PCNA, Bax and Bcl-2. The test is described as follows: Gene expression assay (RT-PCR, Western blot) in rat liver, promotion stage. It is filed as in vivo. The method, then:
Expression patterns, at both mRNA and protein levels, of selected genes related to apoptosis and tumors were examined to investigate the mechanism by which sinigrin prevent tumor occurrence.
RNA was extracted from 300 μg of rat liver and was measured as described in foregoing examples Three micrograms of total RNA, 1 μl of an oligo dT primer and certain volume of RNase-Free H2O were mixed into a total volume of 12 μl. The mixture was incubated at 70° C. for 10 minutes and immediately chilled on ice. Four microliters of 5× First Stand Buffer, 2 μl of 0.1M DTT, 1 μl of 10 mM dNTP mix, and 1 μl of SuperScript II were added to each tube and mixed. The tubes were incubated at 42° C. for 50 minutes followed by 70° C. for 15 minutes before chilling on ice. The cDNA was then ready for PCR amplification.
The PCR reactions were performed in a final volume of 20 μl in a Gene Amp® PCR system. The PCR reaction mix contained 1 μl of cDNA synthesized previously, 2 μl 10×PCR Buffer, 0.4 μl 10 mM dNTP mix, 1.2 μl 25 mM MgCl2, 1 μl 10 mM primer mix, 0.2 μl recombinant Taq polymerase, and 14.2 μl autoclaved ddH2O.
For synthesis of β-actin gene as the internal control and Mdm2 gene, the PCR mixture was incubated at 94° C. for 5 minutes followed by 30 cycles of amplification. Each cycle consisted of 45 seconds of denaturation at 94° C., 45 seconds of annealing at 55° C. and 30 seconds of extension at 72° C. After all cycles were completed, a final extension step at 72° C. for 10 minutes was performed. The PCR products were ready for gel electrophoresis.
For synthesis of p53, the number of cycle was enhanced to 35, the annealing temperature was enhanced to 58° C., and the extension time was extended to 1.5 minutes, respectively.
The intensity of the PCR products was analyzed by the software Image J. The band intensity of the β-actin gene was measured as an internal control. The ratio of the band intensities of the target gene to the β-actin gene was used to compare the mRNA level of each gene between different treatment groups.
Three hundred micrograms of each liver sample were homogenized in the Solution C at 1 g/ml using a glass homogenizer on ice. The homogenate was transferred to a microcentrifuge tube and centrifuged at 13,000 rpm for 20 minutes. The supernatant was collected and equal volume of 2× sample loading dye was added to each sample. The samples were stored at −20° C. The protein was used for immunodetection of the expression level of Bax, Bcl-2, PCNA and p21.
Three hundreds micrograms of each liver sample were homogenized in Solution A at 1 g/ml using the glass homogenizer on ice. The homogenate was transferred into a microcentrifuge tube and centrifuged at 3,000 rpm for 5 minutes to spin down the unbroken tissue. The supernatant was collected and incubated on ice for 5 minutes and then centrifuged at 5,000 rpm for 5 minutes. The supernatant was discarded and the pellet was lysed by 100 μl Solution B. The lysing process lasted for 20 minutes on ice. After incubation, the solution was centrifuged at 12,000 rpm for 15 seconds to spin down the cell debris. The supernatant was collected and equal volume of 2× sample loading dye was added to each sample. The samples were ready for immunodetection of the expression level of p53 and mdm2.
The Mini-PROTEAN II electrophoresis cell (Bio-Rad) was used for sodium dodecyl sulfate poly acrylamide gel electrophoreses (SDS-PAGE). The gel mold was assembled according to the protocol. About 3 ml water was poured into the set mold to test for leakage. After discarding the water, resolving gel solution was prepared according to the established protocol. A 10% acrylamide gel was used for the separation. The resolving gel was poured into the mold at a proper volume (about ⅔ full). After the gel solution was poured into the mold, a thin layer of distilled water was poured on the gel solution to ensure the surface of the gel was smooth. The gel was allowed to polymerize for 30 minutes. […]
A general note: Immunoblotting shows a protein as a band on a membrane.

For `C=CC/C(=N/OS(=O)(=O)[O-])S[C@@H]1OC(CO)[C@@H](O)C(O)C1O.[K+]` (stereo partly drawn) [SIN, sinigrin], where the note is “RT-PCR”, the “Mdm2 mRNA expression” value is reported as “decreased back to levels near the negative control” and the “p53 mRNA expression” value is “decreased back to levels near the negative control”. Also, where the note is “Western blot”, the “Bax protein expression (decreased in positive group)” value was “reversed”, the “Bcl-2 protein expression (increased in positive group)” value was “reversed”, the “Mdm2 protein expression (increase in positive control)” value is recorded as “partially reversed” and the “PCNA protein expression (increased in positive group)” value is “reversed”. Also, under “Western blot”, the p21 protein expression result was “much higher than that of the negative control and the positive control”; the “total p53 protein level” value was “significantly increased”; the “wild type p53 protein level” value is on record as “restored its expression to a level even higher than the negative control”.

For the origin of these results see patent US20100120703A1, “COMPOSITIONS AND METHODS FOR TREATING CANCER” (priority 2007, published 2010).
